Assay results: patent US20080021069A1, “Receptor Function Regulating Agent” (TAKEDA PHARMACEUTICAL COMPANY LIMITED, priority 2004, published 2008)
Where a name gives a salt, the structure may show the parent alone.

What was measured:
human GPR40 = molecular target: T1, human GPR40 (Homo sapiens, UniProt O14842); assay: GPR40 antagonist activity with changes in intracellular calcium concentration as index (NFAT-luciferase reporter, CHO(dhfr-)/GPR40-NFAT-Luc cells); assay type: cell-based; conditions: CHO cell line expressing human GPR40, NFAT-Luc reporter; GPR40 agonist 3-(4-((6-benzyloxy-2',6'-dimethyl-biphenyl-3-yl)methoxy)phenyl)propanoic acid 40 nM; 4 hr culture; 0.1% fatty acid-free BSA
T1 construct: expressed in transfected cells; host or cells: CHO(dhfr-) cells: line CHO-hGPR40 No. 104 of WO2004/041266, with a stably expressed NFAT-TA-Luc reporter (CHO(dhfr-)/GPR40-NFAT-Luc)
Source text: Evaluation of GPR40 antagonist activity with changes in intracellular calcium concentration as index
An assay system of GPR40 antagonist was established as follows. In this assay system, as the GPR40 agonist, 3-(4-((6-benzyloxy-2′,6′-dimethyl-biphenyl-3-yl)methoxy)phenyl)propanoic acid (compound described in Example 340 of WO2004/041266) was used.
First, NFAT-TA was cut out from pNFAT-TA-Luc (manufactured by BD Bioscience Clontech) with HindIII and NheI, the recovered fragment was inserted into pGL3 basic neo digested with HindIII and NheI to give plasmid:pGL3 basic neo NFAT-TA-Luc.
This plasmid was used for “the CHO cell line (CHO-hGPR40 No. 104), which was made to express human GPR40” described in WO2004/041266, and a cell line CHO(dhfr-)/GPR40-NFAT-Luc, wherein a reporter gene was stably expressed by a method known per se, was prepared.
This cell line was diluted with a medium (nucleic acid-free MEM (Minimum Essential Medium)—α medium added with dialyzed FBS (Fetal Bovine Serum) to a final concentration of 10%) in such a manner that 2×10^4 cells/100 μl would be contained, dispensed to a white walled 96 well plate (manufactured by Coster) by 100 μl per well, and cultured overnight in a CO2 incubator. Then the medium was removed by suction from the 96 well plate, and a 10 mM test compound-dimethyl sulfoxide (manufactured by Wako Pure Chemical Industries, Ltd.) solution diluted with a medium (nucleic acid-free MEM—α medium added with bovine serum albumin (BSA) free of fatty acid to a final concentration of 0.1%) to each concentration was added by 50 μl per well. Further, 3-(4-((6-benzyloxy-2′,6′-dimethyl-biphenyl-3-yl)methoxy)phenyl)propanoic acid diluted with a medium (nucleic acid-free MEM-α (medium added with BSA free of fatty acid to a final concentration of 0.1%) to a final concentration of 40 nM was added to the 96 well plate by 50 μl per well.
After culture in a CO2 incubator for 4 hr, the culture medium was removed from the 96 well plate. Then, PicaGene (manufactured by TOYO INK MFG. CO., LTD.) was added to the 96 well plate, and the luciferase activity was determined using PerkinElmer ARVO (trade name, manufactured by PerkinElmer), based on which changes in the intracellular calcium concentration were evaluated. After assay of luciferase activity, nonlinear regression analysis was performed using PRISM 3 (trade name, manufactured by GraphPad) and IC50 value was calculated with changes in the intracellular calcium concentration as an index.
In the same manner as in Experimental Example 1, the IC50 value of the compound of the present invention was calculated.

T1 sequence (O14842 whole entry): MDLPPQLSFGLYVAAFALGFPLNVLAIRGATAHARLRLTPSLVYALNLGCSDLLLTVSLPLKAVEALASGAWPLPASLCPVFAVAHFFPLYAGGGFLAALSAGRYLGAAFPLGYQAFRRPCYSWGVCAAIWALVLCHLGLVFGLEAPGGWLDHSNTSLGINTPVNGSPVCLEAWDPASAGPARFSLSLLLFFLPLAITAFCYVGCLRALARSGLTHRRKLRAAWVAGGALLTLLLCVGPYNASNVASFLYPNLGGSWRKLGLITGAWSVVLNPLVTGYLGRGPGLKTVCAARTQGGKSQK

SMILES | IC50 (human GPR40) [nM] | melting point [°C]
COCOc1ccc(-n2c(SCc3ccc(Cl)cc3)nc3ccc(Cl)cc32)cc1 [Example 7, 6-Chloro-2-[(4-chlorobenzyl)thio]-1-[4-(methoxymethoxy)phenyl]-1H-benzimidazole] | < 100 | 109 to 110
COCOc1ccc(-n2c(SCc3ccc(Br)cc3)nc3ccc(Cl)cc32)cc1 [Example 8, 2-[(4-Bromobenzyl)thio]-6-chloro-1-[4-(methoxymethoxy)phenyl]-1H-benzimidazole] | < 100 | 123 to 124
CCCOc1ccc(-n2c(SCc3ccc(Cl)cc3)nc3ccc(Cl)cc32)cc1 [Example 12, 6-Chloro-2-[(4-chlorobenzyl)thio]-1-(4-propoxyphenyl)-1H-benzimidazole] | < 100 | 102 to 103
CCOc1ccc(-n2c(SCc3ccc(C(F)(F)F)cc3)nc3ccc(Cl)cc32)cc1 [Example 33, 6-Chloro-1-(4-ethoxyphenyl)-2-{[4-(trifluoromethyl)benzyl]thio}-1H-benzimidazole] | < 100 | 103 to 104
CCOc1ccc(-n2c(SCc3ccc(C(F)(F)F)nc3)nc3ccc(Cl)cc32)cc1 [Example 36, 6-chloro-1-(4-ethoxyphenyl)-2-({[6-(trifluoromethyl)pyridin-3-yl]methyl}thio)-1H-benzimidazole] | < 100 | 104 to 105
CCOc1ccc(-n2c(SCc3ccc(C(C)(C)C)cc3)nc3ccc(Cl)cc32)cc1 [Example 38, 2-[(4-tert-butylbenzyl)thio]-6-chloro-1-(4-ethoxyphenyl)-1H-benzimidazole] | < 100 | 142 to 143
CC(C)Oc1ccc(-n2c(SCc3ccc(Cl)cc3)nc3cc(Cl)ccc32)cc1 [Example 46, 5-Chloro-2-[(4-chlorobenzyl)thio]-1-(4-isopropoxyphenyl)-1H-benzimidazole] | < 100 | –
CCOc1ccc(-n2c(NCc3ccc(Cl)cc3)nc3ccc(Cl)cc32)cc1 [Example 47, 6-Chloro-N-(4-chlorobenzyl)-1-(4-ethoxyphenyl)-1H-benzimidazol-2-amine] | < 100 | 135 to 136
CCOc1ccc(-n2c(NCc3ccc(Br)cc3)nc3ccc(Cl)cc32)cc1 [Example 50, N-(4-Bromobenzyl)-6-chloro-1-(4-ethoxyphenyl)-1H-benzimidazol-2-amine] | < 100 | –
CCOc1ccc(-n2c(NCc3ccc(C(C)(C)C)cc3)nc3ccc(Cl)cc32)cc1 [Example 51, N-(4-tert-Butylbenzyl)-6-chloro-1-(4-ethoxyphenyl)-1H-benzimidazol-2-amine] | < 100 | –
CCOc1ccc(-n2c(SCc3ccc(Cl)cc3)nc3cc(Cl)ccc32)cc1 [Example 65, 5-Chloro-2-[(4-chlorobenzyl)thio]-1-(4-ethoxyphenyl)-1H-benzimidazole hydrochloride] | < 100 | –
FC(F)(F)COc1ccc(-n2c(SCc3ccc(Cl)cc3)nc3cc(Cl)ccc32)cc1 [Example 67, 5-chloro-2-[(4-chlorobenzyl)thio]-1-[4-(2,2,2-trifluoroethoxy)phenyl]-1H-benzimidazole] | < 100 | –
CCOc1ccc(-n2c(NC(C)c3ccc(Br)cc3)nc3ccc(Cl)cc32)cc1 (centres unmarked) [Example 71, N-[1-(4-Bromophenyl)ethyl]-6-chloro-1-(4-ethoxyphenyl)-1H-benzimidazol-2-amine] | < 100 | –
CCCCOc1ccc(-n2c(NCc3ccc(C(C)(C)C)cc3)nc3ccc(Cl)cc32)cc1 [Example 75, 1-(4-Butoxyphenyl)-N-(4-tert-butylbenzyl)-6-chloro-1H-benzimidazol-2-amine] | < 100 | –
COc1ccc(-n2c(NCc3ccc(C(C)(C)C)cc3)nc3cc(Cl)c(Cl)cc32)cc1 [Example 92, N-(4-tert-Butylbenzyl)-5,6-dichloro-1-(4-methoxyphenyl)-1H-benzimidazol-2-amine] | < 100 | –
CCCCOc1ccc(-n2c(NCc3ccc(C(C)(C)C)cc3)nc3cc(Cl)c(Cl)cc32)cc1 [Example 99, 1-(4-butoxyphenyl)-N-(4-tert-butylbenzyl)-5,6-dichloro-1H-benzimidazol-2-amine] | < 100 | –
